Data on 29 molecules can be found in patent publication EP2975030B1, “DIHYDROPYRIDAZINE-3,5-DIONE DERIVATIVE” (Chugai Seiyaku Kabushiki Kaisha, priority 2013, dated 2014).

This assay concerns rat small-intestinal brush border membrane vesicles. Put plainly: Inhibitory effect on 33PO4 uptake into rat small-intestinal brush border membrane vesicles (rapid filtration method). It is filed as biochemical, Wistar female rat. The settings on record: 1 µM test compound; 33PO4 uptake into rat small-intestinal BBMVs, 60 seconds. The gist of the method: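 Uptake was terminated by ice-cold 110 mM NaCl, 1 mM KH2PO4, 10 mM HEPES (pH 7.5) buffer and immediate suction filtration, then washing. Using rat small-intestinal BBMVs, retained 33PO4 was quantified by liquid scintillation counting as transport activity.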

In the case of `C[C@]12CCCN1N(Cc1cccc(C#N)c1)C(=O)C(C(=O)Nc1cc(F)c(Br)c(F)c1)=C2O` [Example 220], the “Rate of uptake inhibition (%) (1 µM)” value was found to be 96%. In the case of `CSc1ccc(-c2cc(C(F)(F)F)ccc2NC(=O)C2=C(O)[C@H](C(C)(C)C)N(C)N(Cc3ccc(OCCN4CCOCC4)c(F)c3F)C2=O)cn1` [Example 268], the “Rate of uptake inhibition (%) (1 µM)” value is on record as 63%. Turning to `CCCN(CCN(C)CCOC)c1ccc(CN2C(=O)C(C(=O)Nc3ccc(C(F)(F)F)cc3-c3cc(C(F)(F)F)ncn3)=C(O)C3(CCCC3)N2C)c(F)c1F` [Example 444], the “Rate of uptake inhibition (%) (1 µM)” value came out at 24%. `COc1cc(-c2cc(C(F)(F)F)ccc2NC(=O)C2=C(O)C(C)(C)N(C)N(Cc3cccc(F)c3F)C2=O)cnc1C#N` [Example 302]: the “Rate of uptake inhibition (%) (1 µM)” value came to 79%.

Take `CN1N(Cc2ccc(OCCN3CCN(S(C)(=O)=O)CC3)c(F)c2F)C(=O)C(C(=O)Nc2ccc(C(F)(F)F)cc2-c2cc(C(F)(F)F)ncn2)=C(O)C12CCCC2` [Example 379]: the “Rate of uptake inhibition (%) (1 µM)” value was found to be 137%. To `C[C@]12CCCN1N(Cc1cc(F)ccc1F)C(=O)C(C(=O)Nc1ccc(C(F)(F)F)cc1-c1ccc(C(F)(F)F)nc1)=C2O` [Example 172] belongs 72%; to `CN1N(Cc2ccc(OCCN3CCN(CCOCCO)CC3)c(F)c2F)C(=O)C(C(=O)Nc2ccc(C(F)(F)F)cc2-c2cc(C(F)(F)F)ncn2)=C(O)C12CCC2` [Example 361], 20%. As for `COc1cc(-c2cc(C(F)(F)F)ccc2NC(=O)C2=C(O)[C@@]3(C)CCCN3N(Cc3cccc(F)c3F)C2=O)cnc1C#N` [Example 114, (4aR)-N-[2-(6-Cyano-5-methoxypyridin-3-yl)-4-(trifluoromethyl)phenyl]-1-[(2,3-difluorophenyl)methyl]-4-hydroxy-4a-methyl-2-oxo-6,7-dihydro-5H-pyrrolo[1,2-b]pyridazine-3-carboxamide], the “Rate of uptake inhibition (%) (1 µM)” value was found to be 86%. Regarding `C[C@]12CCCN1N(Cc1cccc(F)c1F)C(=O)C(C(=O)Nc1ccc(Br)cc1F)=C2O` [Example 75], the “Rate of uptake inhibition (%) (1 µM)” value came to 74%.

As for `CC(=O)NCCN(C)CCOc1ccc(CN2C(=O)C(C(=O)Nc3ccc(C(F)(F)F)cc3-c3cc(C(F)(F)F)ncn3)=C(O)C3(CCC3)N2C)c(F)c1F` [Example 353], the “Rate of uptake inhibition (%) (1 µM)” value stood at 26%. To `CN1N(Cc2ccc(OCCN3CCOCC3)c(F)c2F)C(=O)C(C(=O)Nc2ccc(C(F)(F)F)cc2-c2ccc(C(F)(F)F)nc2)=C(O)C12CCCC2` [Example 287] belongs 47%. To `CCCCCN1C(=O)C(C(=O)Nc2ccc(C(F)(F)F)cc2-c2ccc(C(F)(F)F)nc2)=C(O)[C@@]2(C)CCCN12` [Example 26] belongs 72%; to `COCCN(C)CCN(c1ccc(CN2C(=O)C(C(=O)Nc3ccc(C(F)(F)F)cc3-c3cc(C(F)(F)F)ncn3)=C(O)C3(CCCC3)N2C)c(F)c1F)C(C)C` [Example 445], 29%; to `C[C@]12CCCN1N(Cc1cccc(F)c1F)C(=O)C(C(=O)Nc1ccc(C(F)(F)F)cc1-c1ccc(C(F)(F)F)nc1)=C2O` [Example 90], 91%. On to `CN1N(Cc2cccc(F)c2F)C(=O)C(C(=O)Nc2ccc(C(F)(F)F)nc2-c2cncc(C(F)(F)F)c2)=C(O)C1(C)C` [Example 306], for which the “Rate of uptake inhibition (%) (1 µM)” value is 58%. Turning to `COc1cccc(CN2C(=O)C(C(=O)Nc3ccc(C(F)(F)F)cc3-c3ccc(C(F)(F)F)nc3)=C(O)[C@@]3(C)CCCN23)c1OC` [Example 175], the “Rate of uptake inhibition (%) (1 µM)” value stood at 85%. For `C[C@]12CCCN1N(Cc1ccc(OCCCCCO)c(F)c1F)C(=O)C(C(=O)Nc1ccc(C(F)(F)F)cc1-c1cc(C(F)(F)F)ncn1)=C2O` [Example 162], the “Rate of uptake inhibition (%) (1 µM)” value turned out to be 73%. On to `CN1N(Cc2cccc(F)c2F)C(=O)C(C(=O)Nc2cc(F)c(Br)c(F)c2)=C(O)C12CCC2` [Example 257], for which the “Rate of uptake inhibition (%) (1 µM)” value is listed as 71%.

Take `Cc1cc(NC(=O)C2=C(O)[C@H]3CCCN3N(Cc3cccc(F)c3)C2=O)c(C(F)(F)F)o1` [Example 2, (4aR)-1-[(3-Fluorophenyl)methyl]-4-hydroxy-N-[5-methyl-2-(trifluoromethyl)furan-3-yl]-2-oxo-4a,5,6,7-tetrahydropyrrolo[1,2-b]pyridazine-3-carboxamide]: the “Rate of uptake inhibition (%) (1 µM)” value turned out to be 19%. To `C[C@]12CCCN1N(Cc1ccc(OCCN3CCOCC3)c(F)c1F)C(=O)C(C(=O)Nc1ccc(Cl)cc1-c1ccc(C(F)(F)F)nc1)=C2O` [Example 102] belongs 65%; to `CN1N(Cc2ccc(OCC(=O)N3CCOCC3)c(F)c2F)C(=O)C(C(=O)Nc2ccc(C(F)(F)F)cc2-c2cc(C(F)(F)F)ncn2)=C(O)C12CCC2` [Example 336, 8-[[2,3-Difluoro-4-(2-morpholin-2-oxo-ethoxy)phenyl]methyl]-5-hydroxy-9-methyl-7-oxo-N-[4-(trifluoromethyl)-2-[6-(trifluoromethyl)pyrimidin-4yl]phenyl]-8,9-diazaspiro[3.5]non-5-ene-6-carboxamide], 44%; to `C[C@]12CCCN1N(Cc1c(F)cccc1F)C(=O)C(C(=O)Nc1ccc(C(F)(F)F)cc1-c1cc(C(F)(F)F)ncn1)=C2O` [Example 212], 98%. To `CN(CCOc1ccc(CN2C(=O)C(C(=O)Nc3ccc(C(F)(F)F)cc3-c3cc(C(F)(F)F)ncn3)=C(O)C3(CCCC3)N2C)c(F)c1F)C1CCOC1` (centres unmarked) [Example 366] belongs 38%; to `CN1N(Cc2ccc(OCCCCOC[C@H](O)CO)c(F)c2F)C(=O)C(C(=O)Nc2ccc(C(F)(F)F)cc2-c2cc(C(F)(F)F)ncn2)=C(O)C12CCCC2` [Example 393], 45%. To `C[C@]12CCCN1N(Cc1ccc(C#N)cc1)C(=O)C(C(=O)Nc1cc(F)c(Br)c(F)c1)=C2O` [Example 222] belongs 97%; to `CN(CCOc1ccc(CN2C(=O)C(C(=O)Nc3ccc(C(F)(F)F)cc3-c3cc(C(F)(F)F)ncn3)=C(O)C3(CCC3)N2C)c(F)c1F)C1COC1` [Example 402, 6-(2,3-Difluoro-4-(2-(methyl(oxetan-3-yl)amino)ethoxy)benzyl)-9-hydroxy-5-methyl-7-oxo-N-(4-(trifluorometyl)-2-(6-(trifluoromtthyl)pyrimidin-4-yl)phenyl)-5,6-diazaspiro[3.5]non-8-ene-8-carboxamide], 54%. Turning to `CN1N(Cc2cccc(F)c2F)C(=O)C(C(=O)Nc2ccc(C(F)(F)F)cc2-c2ccc(C(F)(F)F)nc2)=C(O)C12CCC2` [Example 301], the “Rate of uptake inhibition (%) (1 µM)” value came to 79%. Under `CN1[C@@H](C(C)(C)C)C(O)=C(C(=O)Nc2ccc(Cl)cc2-c2ccc(C(F)(F)F)nc2)C(=O)N1Cc1cccc(F)c1F` [Example 239] stands 48%; under `COC(=O)c1cc(F)c(CN2C(=O)C(C(=O)Nc3ccc(C(F)(F)F)cc3-c3ccc(C(F)(F)F)nc3)=C(O)[C@@]3(C)CCCN23)c(F)c1` [Example 165, Methyl 4-[[(4aR)-4-Hydroxy-4a-methyl-2-oxo-3-[[4-(trifluoromethyl)-2-[6-(trifluoromethyl)pyridin-3-yl]phenyl]carbamoyl]-6,7-dihydro-5H-pyrrolo[1,2-b]pyridazin-1-yl]methyl]-3,5-difluorobenzoate], 75%.
